{"source": "ChEMBL document CHEMBL1201862", "about": "“PubChem BioAssay data set” (2004)", "assay_in_all_cases": "DTP human tumour cell line panel, 48 h", "key": {"HOP-92": {"system": "HOP-92"}, "DMS-273": {"system": "DMS-273"}, "CAKI-1": {"system": "CAKI-1"}, "SNB-75": {"system": "SNB-75"}, "Malme-3M": {"system": "Malme-3M"}, "NCI-H460": {"system": "NCI-H460"}, "CCRF-CEM": {"system": "CCRF-CEM"}, "RPMI-8226": {"system": "RPMI-8226"}, "KM12": {"system": "KM12"}, "SF-268": {"system": "SF-268"}, "TK-10": {"system": "TK-10"}, "M19-MEL": {"system": "M19-MEL"}, "OVCAR-3": {"system": "OVCAR-3"}, "LOX IMVI": {"system": "LOX IMVI"}, "OVCAR-4": {"system": "OVCAR-4"}, "RXF 393": {"system": "RXF 393"}, "SF-295": {"system": "SF-295"}, "EKVX": {"system": "EKVX"}, "SK-MEL-28": {"system": "SK-MEL-28"}, "U-251": {"system": "U-251"}, "SK-MEL-2": {"system": "SK-MEL-2"}, "HCT-15": {"system": "HCT-15"}, "SF-539": {"system": "SF-539"}, "ACHN": {"system": "ACHN"}, "HL-60": {"system": "HL-60"}, "DLD-1": {"system": "DLD-1"}, "OVCAR-5": {"system": "OVCAR-5"}, "HT-29": {"system": "HT-29"}, "A498": {"system": "A498"}, "COLO 205": {"system": "COLO 205"}, "A549": {"system": "A549"}, "SNB-78": {"system": "SNB-78"}, "NCI-H23": {"system": "NCI-H23"}, "SR": {"system": "SR"}, "UACC-257": {"system": "UACC-257"}, "SW-620": {"system": "SW-620"}, "OVCAR-8": {"system": "OVCAR-8"}, "K562": {"system": "K562"}, "SN12C": {"system": "SN12C"}, "HCT-116": {"system": "HCT-116"}, "HOP-62": {"system": "HOP-62"}, "IGROV-1": {"system": "IGROV-1"}, "XF498": {"system": "XF498"}, "KM-20L2": {"system": "KM-20L2"}, "SK-MEL-5": {"system": "SK-MEL-5"}, "UACC-62": {"system": "UACC-62"}, "DMS-114": {"system": "DMS-114"}, "786-0": {"system": "786-0"}, "HOP-18": {"system": "HOP-18"}, "SNB-19": {"system": "SNB-19"}, "UO-31": {"system": "UO-31"}, "M14": {"system": "M14"}, "NCI-H522": {"system": "NCI-H522"}, "HCC 2998": {"system": "HCC 2998"}, "LXFL 529": {"system": "LXFL 529"}, "MOLT-4": {"system": "MOLT-4"}, "SK-OV-3": {"system": "SK-OV-3"}, "NCI-H226": {"system": "NCI-H226"}}, "note": "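Compound exposure: 48 hours, 5 concentrations, 96-well plates. GI50 is the concentration that inhibits growth by half.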 Activity calls are given as the source filed them. No stated cut-off is given here; in the data, active = GI50 up to about 1.1 µM and inactive = higher."}
{"smiles": "COc1ccc(C2=NC(C)(C)CO2)cc1", "values": [{"measurement": "GI50", "setting": "HOP-92", "value": "> 100 µM (inactive)"}, {"measurement": "GI50", "setting": "DMS-273", "value": "> 100 µM (inactive)"}, {"measurement": "GI50", "setting": "CAKI-1", "value": "> 100 µM (inactive)"}, {"measurement": "GI50", "setting": "SNB-75", "value": "> 100 µM (inactive)"}, {"measurement": "GI50", "setting": "Malme-3M", "value": "> 100 µM (inactive)"}, {"measurement": "GI50", "setting": "NCI-H460", "value": "> 100 µM (inactive)"}, {"measurement": "GI50", "setting": "CCRF-CEM", "value": "> 100 µM (inactive)"}, {"measurement": "GI50", "setting": "RPMI-8226", "value": "> 100 µM (inactive)"}, {"measurement": "GI50", "setting": "KM12", "value": "> 100 µM (inactive)"}, {"measurement": "GI50", "setting": "SF-268", "value": "> 100 µM (inactive)"}, {"measurement": "GI50", "setting": "TK-10", "value": "> 100 µM (inactive)"}, {"measurement": "GI50", "setting": "M19-MEL", "value": "> 100 µM (inactive)"}, {"measurement": "GI50", "setting": "OVCAR-3", "value": "> 100 µM (inactive)"}, {"measurement": "GI50", "setting": "LOX IMVI", "value": "82.6 µM (inactive)"}, {"measurement": "GI50", "setting": "OVCAR-4", "value": "> 100 µM (inactive)"}, {"measurement": "GI50", "setting": "RXF 393", "value": "> 100 µM (inactive)"}, {"measurement": "GI50", "setting": "SF-295", "value": "> 100 µM (inactive)"}, {"measurement": "GI50", "setting": "EKVX", "value": "> 100 µM (inactive)"}, {"measurement": "GI50", "setting": "SK-MEL-28", "value": "> 100 µM (inactive)"}, {"measurement": "GI50", "setting": "U-251", "value": "> 100 µM (inactive)"}, {"measurement": "GI50", "setting": "SK-MEL-2", "value": "> 100 µM (inactive)"}, {"measurement": "GI50", "setting": "HCT-15", "value": "> 100", "unit": "µM"}, {"measurement": "GI50", "setting": "SF-539", "value": "> 100 µM (inactive)"}, {"measurement": "GI50", "setting": "ACHN", "value": "> 100 µM (inactive)"}, {"measurement": "GI50", "setting": "HL-60", "value": "> 100 µM (inactive)"}, {"measurement": "GI50", "setting": "DLD-1", "value": "> 100 µM (inactive)"}, {"measurement": "GI50", "setting": "OVCAR-5", "value": "> 100 µM (inactive)"}, {"measurement": "GI50", "setting": "HT-29", "value": "> 100 µM (inactive)"}, {"measurement": "GI50", "setting": "A498", "value": "> 100 µM (inactive)"}, {"measurement": "GI50", "setting": "COLO 205", "value": "> 100 µM (inactive)"}, {"measurement": "GI50", "setting": "A549", "value": "> 100 µM (inactive)"}, {"measurement": "GI50", "setting": "SNB-78", "value": "> 100 µM (inactive)"}, {"measurement": "GI50", "setting": "NCI-H23", "value": "> 100 µM (inactive)"}, {"measurement": "GI50", "setting": "SR", "value": "> 100 µM (inactive)"}, {"measurement": "GI50", "setting": "UACC-257", "value": "> 100 µM (inactive)"}, {"measurement": "GI50", "setting": "SW-620", "value": "> 100 µM (inactive)"}, {"measurement": "GI50", "setting": "OVCAR-8", "value": "> 100 µM (inactive)"}, {"measurement": "GI50", "setting": "K562", "value": "> 100 µM (inactive)"}, {"measurement": "GI50", "setting": "SN12C", "value": "> 100 µM (inactive)"}, {"measurement": "GI50", "setting": "HCT-116", "value": "> 100 µM (inactive)"}, {"measurement": "GI50", "setting": "HOP-62", "value": "> 100 µM (inactive)"}, {"measurement": "GI50", "setting": "IGROV-1", "value": "> 100 µM (inactive)"}, {"measurement": "GI50", "setting": "XF498", "value": "> 100 µM (inactive)"}, {"measurement": "GI50", "setting": "KM-20L2", "value": "> 100 µM (inactive)"}, {"measurement": "GI50", "setting": "SK-MEL-5", "value": "> 100 µM (inactive)"}, {"measurement": "GI50", "setting": "UACC-62", "value": "> 100 µM (inactive)"}, {"measurement": "GI50", "setting": "DMS-114", "value": "> 100 µM (inactive)"}, {"measurement": "GI50", "setting": "786-0", "value": "> 100 µM (inactive)"}, {"measurement": "GI50", "setting": "HOP-18", "value": "> 100 µM (inactive)"}, {"measurement": "GI50", "setting": "SNB-19", "value": "> 100 µM (inactive)"}]}
{"smiles": "CNC(=O)N(C)COC", "values": [{"measurement": "GI50", "setting": "CAKI-1", "value": "> 100 µM (inactive)"}, {"measurement": "GI50", "setting": "SNB-75", "value": "> 100 µM (inactive)"}, {"measurement": "GI50", "setting": "Malme-3M", "value": "> 100 µM (inactive)"}, {"measurement": "GI50", "setting": "NCI-H460", "value": "> 100 µM (inactive)"}, {"measurement": "GI50", "setting": "CCRF-CEM", "value": "> 100 µM (inactive)"}, {"measurement": "GI50", "setting": "RPMI-8226", "value": "> 100 µM (inactive)"}, {"measurement": "GI50", "setting": "KM12", "value": "> 100 µM (inactive)"}, {"measurement": "GI50", "setting": "UO-31", "value": "> 100 µM (inactive)"}, {"measurement": "GI50", "setting": "SF-268", "value": "> 100 µM (inactive)"}, {"measurement": "GI50", "setting": "M14", "value": "> 100 µM (inactive)"}, {"measurement": "GI50", "setting": "M19-MEL", "value": "> 100 µM (inactive)"}, {"measurement": "GI50", "setting": "OVCAR-3", "value": "32.3 µM (inactive)"}, {"measurement": "GI50", "setting": "LOX IMVI", "value": "> 100 µM (inactive)"}, {"measurement": "GI50", "setting": "OVCAR-4", "value": "> 100 µM (inactive)"}, {"measurement": "GI50", "setting": "NCI-H522", "value": "> 100 µM (inactive)"}, {"measurement": "GI50", "setting": "HCC 2998", "value": "> 100 µM (inactive)"}, {"measurement": "GI50", "setting": "SF-295", "value": "> 100 µM (inactive)"}, {"measurement": "GI50", "setting": "EKVX", "value": "> 100 µM (inactive)"}, {"measurement": "GI50", "setting": "SK-MEL-28", "value": "> 100 µM (inactive)"}, {"measurement": "GI50", "setting": "U-251", "value": "> 100 µM (inactive)"}, {"measurement": "GI50", "setting": "SK-MEL-2", "value": "> 100 µM (inactive)"}, {"measurement": "GI50", "setting": "HCT-15", "value": "> 100", "unit": "µM"}, {"measurement": "GI50", "setting": "LXFL 529", "value": "> 100 µM (inactive)"}, {"measurement": "GI50", "setting": "SF-539", "value": "> 100 µM (inactive)"}, {"measurement": "GI50", "setting": "ACHN", "value": "> 100 µM (inactive)"}, {"measurement": "GI50", "setting": "HL-60", "value": "> 100 µM (inactive)"}, {"measurement": "GI50", "setting": "DLD-1", "value": "> 100 µM (inactive)"}, {"measurement": "GI50", "setting": "OVCAR-5", "value": "> 100 µM (inactive)"}, {"measurement": "GI50", "setting": "HT-29", "value": "> 100 µM (inactive)"}, {"measurement": "GI50", "setting": "A498", "value": "> 100 µM (inactive)"}, {"measurement": "GI50", "setting": "COLO 205", "value": "> 100 µM (inactive)"}, {"measurement": "GI50", "setting": "MOLT-4", "value": "> 100 µM (inactive)"}, {"measurement": "GI50", "setting": "A549", "value": "> 100 µM (inactive)"}, {"measurement": "GI50", "setting": "SNB-78", "value": "> 100 µM (inactive)"}, {"measurement": "GI50", "setting": "SR", "value": "> 100 µM (inactive)"}, {"measurement": "GI50", "setting": "UACC-257", "value": "> 100 µM (inactive)"}, {"measurement": "GI50", "setting": "SW-620", "value": "> 100 µM (inactive)"}, {"measurement": "GI50", "setting": "OVCAR-8", "value": "> 100 µM (inactive)"}, {"measurement": "GI50", "setting": "SN12C", "value": "> 100 µM (inactive)"}, {"measurement": "GI50", "setting": "HCT-116", "value": "> 100 µM (inactive)"}, {"measurement": "GI50", "setting": "SK-OV-3", "value": "> 100 µM (inactive)"}, {"measurement": "GI50", "setting": "HOP-62", "value": "> 100 µM (inactive)"}, {"measurement": "GI50", "setting": "IGROV-1", "value": "> 100 µM (inactive)"}, {"measurement": "GI50", "setting": "XF498", "value": "> 100 µM (inactive)"}, {"measurement": "GI50", "setting": "KM-20L2", "value": "> 100 µM (inactive)"}, {"measurement": "GI50", "setting": "UACC-62", "value": "> 100 µM (inactive)"}, {"measurement": "GI50", "setting": "DMS-114", "value": "> 100 µM (inactive)"}, {"measurement": "GI50", "setting": "NCI-H226", "value": "> 100 µM (inactive)"}, {"measurement": "GI50", "setting": "HOP-18", "value": "> 100 µM (inactive)"}, {"measurement": "GI50", "setting": "SNB-19", "value": "> 100 µM (inactive)"}]}
